Measured values from the NIST ThermoML archive (doi:10.1016/j.jct.2007.04.009).
± gives the expanded uncertainty stated by the source.

Assay: cn = amount concentration of the nth substance listed, in mol/dm3
Conditions: 101 kPa, Liquid; for speed of sound: Sing-around technique in a fixed-path interferometer; for mass density: Vibrating tube method

Cl [hydrogen chloride] + O
speed of sound (283.15 K, c1 = 0.001): 1447.9 ± 0.99 m/s
speed of sound (283.15 K, c1 = 0.01): 1448.2 ± 0.99 m/s
mass density (283.15 K, c1 = 0.001): 999.726 ± 0.047 kg/m3
mass density (283.15 K, c1 = 0.01): 999.891 ± 0.047 kg/m3
speed of sound (293.15 K, c1 = 0.001): 1482.6 ± 1 m/s
speed of sound (293.15 K, c1 = 0.01): 1482.7 ± 1 m/s
mass density (293.15 K, c1 = 0.001): 998.23 ± 0.058 kg/m3
mass density (293.15 K, c1 = 0.01): 998.393 ± 0.044 kg/m3
speed of sound (298.15 K, c1 = 0.001): 1496.8 ± 0.99 m/s
speed of sound (298.15 K, c1 = 0.01): 1496.9 ± 0.99 m/s
mass density (298.15 K, c1 = 0.001): 997.067 ± 0.053 kg/m3
mass density (298.15 K, c1 = 0.01): 997.231 ± 0.046 kg/m3
speed of sound (303.15 K, c1 = 0.001): 1509.3 ± 0.99 m/s
speed of sound (303.15 K, c1 = 0.01): 1509.3 ± 0.99 m/s
mass density (303.15 K, c1 = 0.001): 995.67 ± 0.054 kg/m3
mass density (303.15 K, c1 = 0.01): 995.834 ± 0.049 kg/m3
speed of sound (308.15 K, c1 = 0.001): 1520 ± 0.99 m/s
speed of sound (308.15 K, c1 = 0.01): 1520 ± 0.99 m/s
mass density (308.15 K, c1 = 0.001): 994.057 ± 0.06 kg/m3
mass density (308.15 K, c1 = 0.01): 994.318 ± 0.05 kg/m3
speed of sound (313.15 K, c1 = 0.001): 1529.1 ± 0.99 m/s
speed of sound (313.15 K, c1 = 0.01): 1529.1 ± 0.99 m/s
mass density (313.15 K, c1 = 0.001): 992.244 ± 0.052 kg/m3
mass density (313.15 K, c1 = 0.01): 992.405 ± 0.053 kg/m3
